According to article doi:10.1101/2024.08.25.609621 (bioRxiv, 2024):
pIC50: −log10 of the molar value. “And” between values parts separate entries of the source, which are not always exact repeats. Equal entries are not always repeated. Where two headings read alike, the source gives them in different places.

Assays:
[1] = biological target: SARS-CoV-2 NSP3 macrodomain (Mac1) (Severe acute respiratory syndrome coronavirus 2, UniProt P0DTD1); assay: biochemical; assay type: binding; conditions: for Hill slope: HTRF dose-response fit, Mac1; for SARS CoV-2 macrodomain HTRF assay: Hillslope: dose-response fit; for pIC50: SARS CoV-2 macrodomain HTRF assay, read-out: IC50
[2] = biological target: SARS-CoV-2 NSP3 macrodomain (Mac1), P43 crystal form (Severe acute respiratory syndrome coronavirus 2, UniProt P0DTD1); assay type: binding; conditions: for 1-BDC: PanDDA background density correction; for Total number of conformations: ligand conformations modeled in Mac1 crystal structure; for X-ray crystallography: Binding site: site where the ligand is bound in the X-ray crystal structure; for X-ray crystal structure: TRUE = crystal structure with ligand determined; for Binding site: site of Mac1 where ligand bound in crystal structure
[3] = occupancy estimate from PanDDA BDC
[4] = crystal soak concentration 10 mM, P43 crystals
[5] = crystal soak concentration 10 mM
[6] = crystal soak concentration 20 mM, P43 crystals
[7] = occupancy estimate from PanDDA 1-BDC
[8] = crystal soak, soak concentration 10 mM

Compound	Hill slope [1]	SARS CoV-2 macrodomain HTRF assay: Hillslope [1]	Occupancy difference (refined_occupancy - 2*(1-BDC)) [2]	Refined ligand occupancy (%) [2]	PanDDA run, DMSO background map: 1-BDC ([2]; event 1)	1-BDC [2]	Total number of conformations [2]	2*(1-BDC) (%) [2, 3]	X-ray crystallography: Binding site [2]	further results
CC1(C)CCN(c2ncnc3[nH]ccc23)C(CO)C1 (stereo not shown) [AVI-5994]	1.2	1.2	0	46%	0.23 and 0.27	0.23	2	46%	Adenosine	Comment ([2]; comment on ligand modeling / Phe132 loop density): Weak density for open state of Phe132 loop
O[C@@H]1COC[C@H]1Nc1ncnc2[nH]ccc12 [AVI-1443]	–	–	–	–	–	–	–	–	–	pIC50 ([1]; dose-response): < 3.00; Pandda run, overall: Modeling comment ([2]; crystal soak, soak concentration 5 mM): Weak density, not modeled; Pandda run, overall: Hit ([2]; crystal soak, soak concentration 5 mM, TRUE = ligand hit): TRUE; PanDDA run, DMSO background map: 1-BDC ([2]; soak concentration 5 mM): 0.05 and 0.04; PanDDA run, DMSO background map: Hit ([2]; soak concentration 5 mM): TRUE
O=C(Nc1ccsc1C(=O)O)c1ccc2c(c1)OCO2 [AVI-316]	–	–	–	–	–	0.07	1	–	–	pIC50 ([1]; Dose-response): < 3.00; inhibition at 200 µM ([1]; Single dose, 200 μM, mean of three technical replicates, read-out: Average % competition): 29%; inhibition at 200 µM ([1]; preliminary screen, compound at 200 μM, mean of 3-4 technical replicates, read-out: % competition in HTRF assay): 29%; X-ray crystal structure [2]: TRUE; PanDDA run, DMSO background map: 1-BDC ([2]; crystal soak concentration 10 mM, event 1): 0.07; Pandda run, overall: Hit [2, 4]: TRUE; Pandda run, overall: Modeled [2, 4]: TRUE; PanDDA run, DMSO background map: Hit [2, 5]: TRUE; PanDDA run, DMSO background map: Modeled [2, 5]: TRUE; PanDDA run, DMSO background map: Hit ([2]; crystal soak concentration 20 mM): TRUE; PanDDA run, DMSO background map: 1-BDC ([2]; crystal soak concentration 20 mM, event 1): 0.12; Pandda run, overall: Hit [2, 6]: TRUE; Pandda run, overall: Modeling comment [2, 6]: Duplicate, not modeled; 2*(1-BDC) (%) [2, 7]: 14%; Binding site [2]: Adenosine
c1ccc(-n2nnnc2CSc2nnc(NC3CC3)s2)cc1 [AVI-286]	–	–	–	–	–	0.11	1	–	–	Average % competition ([1]; Single dose, 200 μM, mean of three technical replicates): 0%; X-ray crystal structure [2]: TRUE; Pandda run, overall: Hit ([2]; crystal soak, soak concentration 10 mM, P43 crystals, TRUE = ligand-binding event identified): TRUE; PanDDA run, DMSO background map: Hit [2, 8]: TRUE; PanDDA run, DMSO background map: Modeled [2, 8]: TRUE; PanDDA run, DMSO background map: 1-BDC ([2]; crystal soak, soak concentration 10 mM, event 1): 0.11; Pandda run, overall: Modeled ([2]; crystal soak, soak concentration 10 mM, TRUE = ligand modeled): TRUE; 2*(1-BDC) (%) [2, 7]: 22%; Binding site [2]: Distal
OC1CCC(O)(CNc2ncnc3[nH]ccc23)CC1 (stereo not shown) [AVI-6220]	1.3	1.3	0	14%	0.07	0.07	2	14%	Adenosine	–
OC1(CNc2ncnc3[nH]ccc23)CCCSC1 (stereo not shown) [AVI-4322]	1.3	1.3	0	42%	0.21	0.21	1	42%	Adenosine	–
OCC1C=CCCN1c1ncnc2[nH]ccc12 (stereo not shown) [AVI-5998]	1.2	1.2	0	38%	0.21 and 0.19	0.19	1	38%	Adenosine	–
